Experiments:
[1] = system: breast cancer metastatic cell line; conditions: 10 μM of S1P co-administered; cited from earlier work
[2] = system: pancreatic adenocarcinoma; assay: Overall survival of pancreatic adenocarcinoma patients under gemcitabine chemotherapy, by plasmatic S1P concentration; format: in vivo, human
[3] = system: CAM-grafted pancreas, lung and ovarian tumors; assay: Neoadjuvant effect in the CAM (Chicken Chorioallantoic Model) with grafted tumors; format: in vivo; conditions: compared to CAM-grafted tumors not previously treated with the neoadjuvants
Method: The neoadjuvant effect of benzylphthalazine and imidazole derivatives according to the present invention are assessed for their neoadjuvant effect against pancreas, lung and ovarian tumors.
The neoadjuvant effect is evaluated using the CAM (Chicken Chorioallantoic Model) as described by Sliwinska et al. (Sliwinska et al., Angiogenesis, 2014, 14(4), 779-804).

Compound | effect on cytotoxicity of docetaxel, doxorubicin and cyclophosphamide [1] | overall survival median ([2]; conventional gemcitabine chemotherapy, plasmatic S1P higher than 650 nM versus lower, FIG. 3) | overall survival ([2]; patients having a high plasmatic S1P concentration (>650 nM), FIG. 5) | cytotoxic effect against CAM-grafted tumors pretreated with neoadjuvant [3]
CCCCCCCCCCCCC/C=C/[C@@H](O)[C@@H](N)COP(=O)(O)O [S1P, Sphingosine-1-phosphate] | increased the cytotoxicity |  |  | 
Nc1ccn([C@@H]2O[C@H](CO)[C@@H](O)C2(F)F)c(=O)n1 [gemcitabine] |  | better overall survival median | 12.3 months | enhanced
CC(=O)O[C@H]1C(=O)[C@@]2(C)[C@H]([C@H](OC(=O)c3ccccc3)[C@]3(O)C[C@H](OC(=O)[C@H](O)[C@@H](NC(=O)c4ccccc4)c4ccccc4)C(C)=C1C3(C)C)[C@]1(OC(C)=O)CO[C@@H]1C[C@@H]2O [paclitaxel] |  |  |  | enhanced
